Test results from patent US20200138827A1, “SMALL MOLECULE MODULATORS OF HUMAN STING” (Curadev Pharma Limited, priority 2017, published 2020).
Read-outs that look alike come from different tables or passages of the source.

Columns and labels:
IRF pathway = assay: Reporter gene expression assay in THP1-Dual cells, IRF axis (secreted Lucia luciferase); format: cell-based, human; conditions: read-out: THP-IRF activity (EC50 range)
In short: (§1)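 THP-1-derived cells carrying inducible NF-κB-SEAP and IRF-Lucia reporters, seeded at 5×10^5 and stimulated with compounds. After […], supernatant SEAP read with QUANTI-Blue and Lucia luciferase with QUANTI-Luc.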

WT/R232 STING protein = molecular target: T1, WT/R232 STING protein (Homo sapiens, UniProt Q86WV6, H232R); assay: Luciferase reporter assay in HEK293T-hSTING-Luciferase cells, WT/R232; format: cell-based; conditions: 20 hr stimulation, read-out: R232 Activity (EC50 range)
T1 construct: host or cells: HEK293T
In short: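 Clonal HEK293T cells stably expressing human STING R232 plus an ISRE/ISG54-driven luciferase reporter, 5×10^5 per well, stimulated with compounds for 20 h. Secreted luciferase in supernatant measured by luminescence; […].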

hSTING(HAQ) = molecular target: T2, hSTING(HAQ) (Homo sapiens, UniProt Q86WV6, G230A/H232R/R293Q/R71H); assay: Luciferase reporter assay in HEK293T-hSTING-Luciferase cells, HAQ polymorph; format: cell-based; conditions: 20 hr stimulation, read-out: HAQ activity (EC50 range)
T2 construct: host or cells: HEK293T
In short: (§2)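 HEK293T clones stably expressed the given human STING variant plus luciferase under an ISRE/ISG54 IRF-inducible promoter. 5×10^5 cells were stimulated with compound for 20 hr, and secreted luciferase in the supernatant was measured by Quanti-Luc luminescence.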

hSTING(H232) = molecular target: T3, hSTING(H232) (Homo sapiens, UniProt Q86WV6); assay: Luciferase reporter assay in HEK293T-hSTING-Luciferase cells, H232 polymorph; format: cell-based; conditions: 20 hr stimulation, read-out: H232 activity (EC50 range)
T3 construct: host or cells: HEK293T
In short: as §2

NF-κB pathway = assay: Reporter gene expression assay in THP1-Dual cells, NFkB axis (secreted SEAP); format: cell-based, human; conditions: read-out: THP-NFKB activity (EC50 range)
In short: as §1

T1 sequence (Q86WV6 whole entry H232R): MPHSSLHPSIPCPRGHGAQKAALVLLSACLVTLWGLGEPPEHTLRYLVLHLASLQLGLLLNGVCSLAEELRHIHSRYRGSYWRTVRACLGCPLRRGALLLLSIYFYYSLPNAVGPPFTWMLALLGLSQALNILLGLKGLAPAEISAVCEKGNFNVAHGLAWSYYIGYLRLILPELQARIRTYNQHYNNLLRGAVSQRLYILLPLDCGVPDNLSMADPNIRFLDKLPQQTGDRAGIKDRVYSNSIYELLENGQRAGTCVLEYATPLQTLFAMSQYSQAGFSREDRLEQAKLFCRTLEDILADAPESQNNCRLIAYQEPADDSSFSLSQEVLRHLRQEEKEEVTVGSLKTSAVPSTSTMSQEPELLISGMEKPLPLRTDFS
T2 sequence (Q86WV6 whole entry R71H/G230A/H232R/R293Q): as the sequence (Q86WV6 whole entry H232R) above, with R71H, G230A, R293Q counted along it
T3 sequence (Q86WV6 whole entry): as the sequence (Q86WV6 whole entry H232R) above, with R232H counted along it

Compound | EC50 (IRF pathway; Homo sapiens, THP1-Dual) [µM] | EC50 (WT/R232 STING protein) [µM] | EC50 (hSTING(HAQ)) [µM] | EC50 (hSTING(H232)) [µM] | EC50 (NF-κB pathway; Homo sapiens, THP1-Dual) [µM] | EC50 (IRF pathway) [µM] | EC50 (NF-κB pathway) [µM]
Cc1cccc(CNC(=O)c2ccc3c(c2)N(Cc2c(F)cccc2Cl)C(=O)CS3)c1 [Example 37, 4-(2-chloro-6-fluorobenzyl)-N-(3-methylbenzyl)-3-oxo-3,4-dihydro-2H-benzo[b-1,4]thiazine-6-carboxamide] | > 10 | < 1 | > 10 | 1 to 10 | > 10 | – | –
O=C(NCc1cc2ccccc2o1)c1ccc2c(n1)N(Cc1cc(F)cc(F)c1)C(=O)CC2 [Example 281, N-(benzofuran-2-ylmethyl)-8-(3,5-difluorobenzyl)-7-oxo-5,6,7,8-tetrahydro-1,8-naphthyridine-2-carboxamide] | > 10 | 1 to 10 | 1 to 10 | 1 to 10 | > 10 | – | –
O=C(NCc1cc2ccccc2o1)c1ccc2c(c1)N(Cc1ccccc1)C(=O)CS2 [Example 69, N-(benzofuran-2-ylmethyl)-4-benzyl-3-oxo-3,4-dihydro-2H-benzo[b-1,4]thiazine-6-carboxamide] | > 10 | 1 to 10 | 1 to 10 | 1 to 10 | > 10 | – | –
O=C(NCc1c(F)cc(F)cc1F)c1ccc2c(c1)N(Cc1ccncc1)C(=O)CS2 [Example 39, 3-oxo-4-(pyridin-4-ylmethyl)-N-(2,4,6-trifluoro-benzyl)-3,4-dihydro-2H-benzo[b-1,4]thiazine-6-carboxamide] | > 10 | 1 to 10 | 1 to 10 | 1 to 10 | > 10 | – | –
Cc1ccc(CNC(=O)c2ccc3c(n2)N(Cc2cc(F)cc(F)c2)C(=O)C(C)S3)o1 (centres unmarked) [Example 198, 4-(3,5-difluorobenzyl)-2-methyl-N-((5-methylfuran-2-yl)methyl)-3-oxo-3,4-dihydro-2H-pyrido[3,2-b][1,4]thiazine-6-carboxamide] | – | < 1 | < 1 | < 1 | – | 1 to 10 | 1 to 10
Cc1ccc(CNC(=O)c2ccc3c(n2)N(Cc2cc(F)cc(F)c2)C(=O)C(C)S3)o1 (centres unmarked) [Example 190, 4-(3,5-difluorobenzyl)-2-methyl-N-((5-methylfuran-2-yl)methyl)-3-oxo-3,4-dihydro-2H-pyrido[3,2-b-1,4]thiazine-6-carboxamide] | – | < 1 | 1 to 10 | 1 to 10 | – | 1 to 10 | 1 to 10
CC1(C)Sc2ccc(C(=O)NCc3cc4ccccc4o3)cc2N(Cc2ccccc2F)C1=O [Example 161, N-(benzofuran-2-ylmethyl)-4-(2-fluorobenzyl)-2,2-dimethyl-3-oxo-3,4-dihydro-2H-benzo[b][1,4] thiazine-6-carboxamide] | > 10 | 1 to 10 | 1 to 10 | > 10 | > 10 | – | –
O=C(NCc1ccco1)c1ccc2c(c1)N(Cc1cc(F)cc(F)c1)C(=O)CS2 [Example 87, 4-(3,5-difluorobenzyl)-N-(furan-2-ylmethyl)-3-oxo-3,4-dihydro-2H-benzo[b][1,4] thiazine-6-carboxamide] | > 10 | < 1 | > 10 | 1 to 10 | > 10 | – | –
Cc1ccc(CNC(=O)c2cnc3c(c2)N(Cc2c(F)cccc2Cl)C(=O)C(C)S3)o1 (centres unmarked) [Example 195, 1-(2-chloro-6-fluorobenzyl)-3-methyl-N-((5-methylfuran-2-yl)methyl)-2-oxo-2,3-dihydro-1H-pyrido[2,3-b][1,4]thiazine-7-carboxamide] | > 10 | < 1 | 1 to 10 | 1 to 10 | 1 to 10 | – | –
O=C(NCc1ccco1)c1ccc2c(c1)N(Cc1c(F)cccc1Cl)C(=O)CS2 [Example 131, 4-(2-chloro-6-fluorobenzyl)-N-(furan-2-ylmethyl)-3-oxo-3,4-dihydro-2H-benzo[b][1,4]thiazine-6-carboxamide] | > 10 | 1 to 10 | > 10 | 1 to 10 | > 10 | – | –
Cc1ccc(CNC(=O)c2ccc3c(n2)N(Cc2cc(F)cc(F)c2)C(=O)C(C)S3)o1 (centres unmarked) [Example 203, 4-(3,5-difluorobenzyl)-2-methyl-N-((5-methylfuran-2-yl)methyl)-3-oxo-3,4-dihydro-2H-pyrido[3,2-b][1,4]thiazine-6-carboxamide] | – | 1 to 10 | 1 to 10 | 1 to 10 | – | > 10 | > 10
O=C(NCc1ccco1)c1ccc2c(c1)N(Cc1c(Cl)cccc1Cl)C(=O)CS2 [Example 93, 4-(2,6-dichlorobenzyl)-N-(furan-2-ylmethyl)-3-oxo-3,4-dihydro-2H-benzo[b-1,4]thiazine-6-carboxamide] | > 10 | 1 to 10 | > 10 | 1 to 10 | > 10 | – | –

Second part, the compound after the results:

EC50 (IRF pathway; Homo sapiens, THP1-Dual) [µM] | EC50 (WT/R232 STING protein) [µM] | EC50 (hSTING(HAQ)) [µM] | EC50 (hSTING(H232)) [µM] | EC50 (NF-κB pathway; Homo sapiens, THP1-Dual) [µM] | EC50 (IRF pathway) [µM] | EC50 (NF-κB pathway) [µM] | Compound
1 to 10 | < 1 | 1 to 10 | 1 to 10 | 1 to 10 | – | – | Cc1cccc(CNC(=O)c2ccc3c(c2)N(Cc2cc(F)cc(F)c2)C(=O)C(C)S3)c1 (centres unmarked) [Example 144, 4-(3,5-difluorobenzyl)-2-methyl-N-(3-methylbenzyl)-3-oxo-3,4-dihydro-2H-benzo[b-1,4]thiazine-6-carboxamide]
1 to 10 | < 1 | 1 to 10 | 1 to 10 | 1 to 10 | – | – | Cc1cc(CN2C(=O)C(C)Sc3ccc(C(=O)NCc4c(F)cc(F)cc4F)cc32)no1 (centres unmarked) [Example 159, 2-methyl-4-((5-methylisoxazol-3-yl)methyl)-3-oxo-N-(2,4,6-trifluorobenzyl)-3,4-dihydro-2H-benzo[b][1,4] thiazine-6-carboxamide]
1 to 10 | < 1 | 1 to 10 | 1 to 10 | 1 to 10 | – | – | CC1Sc2ccc(C(=O)NCc3ccco3)cc2N(Cc2cc(F)cc(F)c2)C1=O (centres unmarked) [Example 156, 4-(3,5-difluorobenzyl)-N-(furan-2-ylmethyl)-2-methyl-3-oxo-3,4-dihydro-2H-benzo [b][1,4]thiazine-6-carboxamide]
> 10 | < 1 | > 10 | > 10 | > 10 | – | – | Cc1ccc(CNC(=O)c2ccc3c(c2)N(Cc2cc(F)cc(F)c2)C(=O)C(C)S3)o1 (centres unmarked) [Example 152, 4-(3,5-difluorobenzyl)-2-methyl-N-((5-methylfuran-2-yl)methyl)-3-oxo-3,4-dihydro-2H-benzo[b][1,4] thiazine-6-carboxamide]
– | < 1 | < 1 | < 1 | – | 1 to 10 | < 1 | CC1Sc2ccc(C(=O)NCc3c(F)cc(F)cc3F)cc2N(Cc2cc(F)cc(F)c2)C1=O (centres unmarked) [Example 148, 4-(3,5-difluorobenzyl)-2-methyl-3-oxo-N-(2,4,6-trifluorobenzyl)-3,4-dihydro-2H-benzo[b][1,4] thiazine-6-carboxamide]
1 to 10 | < 1 | 1 to 10 | 1 to 10 | 1 to 10 | – | – | Cc1cc(CN2C(=O)C(C)Sc3ccc(C(=O)NCc4c(F)cc(F)cc4F)cc32)on1 (centres unmarked) [Example 158, 2-methyl-4-((3-methylisoxazol-5-yl)methyl)-3-oxo-N-(2,4,6-trifluorobenzyl)-3,4-dihydro-2H-benzo[b][1,4] thiazine-6-carboxamide]
> 10 | < 1 | 1 to 10 | 1 to 10 | > 10 | – | – | CC1Oc2ccc(C(=O)NCc3c(F)cc(F)cc3F)cc2N(Cc2cc(F)cc(F)c2)C1=O (centres unmarked) [Example 232, 2-Methyl-4-(3,5-difluorobenzvyl)-3-oxo-N-(2,4,6-trifluorobenzyl)-3,4-dihydro-2H-1,4-benzoxazine-6-carboxamide]
– | < 1 | 1 to 10 | > 10 | – | > 10 | > 10 | C[C@H]1Oc2ccc(C(=O)NCc3c(F)cc(F)cc3F)cc2N(Cc2cc(F)cc(F)c2)C1=O [Example 242, (R)-4-(3,5-difluorobenzyl)-2-methyl-3-oxo-N-(2,4,6-trifluorobenzyl)-3,4-dihydro-2H-benzo[b][1,4] oxazine-6-carboxamide]
> 10 | < 1 | < 1 | < 1 | > 10 | – | – | O=C(NCc1c(F)cc(F)cc1F)c1ccc2c(c1)N(Cc1c(F)cccc1Cl)C(=O)CS2 [Example 112, 4-(2-chloro-6-fluorobenzyl)-3-oxo-N-(2,4,6-trifluorobenzyl)-3,4-dihydro-2H-benzo[b-1,4]thiazine-6-carboxamide]
> 10 | < 1 | > 10 | > 10 | > 10 | – | – | CC1Sc2ccc(C(=O)NCc3c(F)cc(F)cc3F)cc2N(Cc2cccc(C(N)=O)c2)C1=O (centres unmarked) [Example 160, 4-(3-carbamoylbenzyl)-2-methyl-3-oxo-N-(2,4,6-trifluorobenzyl)-3,4-dihydro-2H-benzo[b][1,4] thiazine-6-carboxamide]
